Measured values reported in patent publication US4997843A, “2,4-disubstituted derivatives of tetrahydrofuran useful for the treatment of PAF mediated illnesses” (J Uriach & Cia S.A., priority 1987, dated 1991).
Where two headings read alike, the source gives them in different places.

Legend:
[1] = tested on: platelet aggregation induced by PAF; test: Test 1: inhibition of platelet aggregation induced by PAF in vitro (rabbit platelet rich plasma, Born nephelometric technique); assay type: cell-based, male New Zealand albino rabbits; conditions: PAF C18 16 nM final, read-out: IC50 (concentration of the drug needed to inhibit the platelet aggregation in a 50%)
Description: TEST 1: INHIBITION OF PLATELET AGGREGATION INDUCED BY PAF
The platelet rich plasma (PRP) is prepared by blood centrifugation at 250 xg for 10 min. at 4° C. and it is diluted with platelet poor plasma (PPP) obtained by additional centrifugation at 300 xg for 10 min. The amount of platelets is adjusted to […].

[2] = tested on: hypotension induced by PAF; test: Test 2: inhibition of the hypotensive effect induced by PAF in normotense rats; assay type: in vivo, male Sprague Dawley rats; conditions: anesthetized rats, compound via femoral vein 3 min before PAF (0.5 mg/Kg, i.v.); for ED50: Rattus norvegicus, iv, read-out: IC50 (inhibition of the hypotension induced by PAF)
Description: TEST 2--INHIBITION OF THE HYPOTENSIVE EFFECT INDUCED BY PAF IN NORMOTENSE RATS
Male Sprague Dawley rats, of 180-220 g of weight, anesthetized with sodium pentobarbital (50 mg/Kg, i.p. 1 mL/100 g) have been used. In order to measure the average arterial pressure a polyethylene catheter was introduced into the carotid artery. The arterial pressure was recorded with the help of a transducer connected with a R611 Beckman polygraph. The tested compounds were administrated through the femoral vein 3 min. before the injection of PAF (0.5 mg/Kg, i.v.).

[3] = Oryctolagus cuniculus, Platelet

SMILES | IC50 [1, 3] [nM] | ED50 [2] [mg/kg] | other results
CCCCCCCCCCCCCCCCCCOCC1CC(COC(=O)CCCCC[n+]2ccsc2)CO1 (racemic) [Compound 64, (±)-cis, trans-3-[6-[(2-octadecyloxymethyltetrahydrofuran-4-yl)methoxy]6-oxohexyl]thiazolium 4-methylbenzenesulfonate] | 1500 | 1.1 | 
CCCCCCCCCCCCCCCCCCOCC1CC(COC(=O)NCc2cccc[n+]2C)CO1 (racemic) [Compound 66, (±)-cis, trans-N-methyl-2-[[[[(2-octadecyloxymethyl-tetrahydrofuran-4-yl)methoxy]carbonyl]amino]methyl]pyridinium iodide] | 1600 | 5 | 
CCCCCCCCCCCCCCOC[C@H]1CO[C@@H](COC(=O)N(Cc2cccc[n+]2CC)C(C)=O)C1.[Cl-] (racemic) [Compound 25, (±)-cis, trans-N-ethyl-2-[N-acetyl-[[[(4-tetradecyloxymethyltetrahydrofuran-2-yl)methoxy]carbonyl]amino]-methyl]pyridinium chloride] |  |  | IC50 (inhibition of the hypotension induced by PAF) [2]: 0.081 mg/Kg, i.v.; IC50 [1]: 95 nM
CCCCCCCCCCCCCCCCCCOCC1COC(COC(=O)CCCCC[n+]2ccsc2)C1 (racemic) [Compound 6, (±)-cis, trans-3-[6-[(4-octadecyloxymethyltetrahydrofuran-2-yl)methoxy]-6-oxohexyl]thiazolium 4-methylbenzenesulfonate] | 8600 | 1.9 | 
CCCCCCCCCCCCCCCCCCOCC1CC(COC(=O)N(Cc2cccc[n+]2C)C(C)=O)CO1 (racemic) [Compound 68, (±)-cis, trans-N-methyl-2-[N-acetyl-[[[(2-octadecyloxymethyltetrahydrofuran-4-yl)methoxy]carbonyl]amino]methyl]pyridinium iodide] | 140 | 0.11 | 
CCCCCCCCCCCCCCCCCCC1COC(COC(=O)N(Cc2cccc[n+]2CC)C(C)=O)C1 (racemic) [Compound 113] | 200 | 0.2 | 
CCCCCCCCCCCCCCCCOCC1COC(COC(=O)N(Cc2cccc[n+]2C)C(C)=O)C1 (racemic) [Compound 12, (±)-cis, trans-N-methyl-2-[N-acetyl-[[[(4-hexadecyloxymethyltetrahydrofuran-2-yl)methoxy]carbonyl]amino]methyl]pyridinium iodide] | 100 | 0.23 | 
CCCCCCCCCCCCCCCCOCC1COC(COC(=O)CCCCC[n+]2ccsc2)C1 (racemic) [Compound 5, (±)-cis, trans-3-[6-[(4-hexadecyloxymethyltetrahydrofuran-2-yl)methoxy]-6-oxohexyl]thiazolium 4-methylbenzenesulfonate] | 4800 | 1.6 | 
CCCCCCCCCCCCCCC1COC(COC(=O)N(Cc2cccc[n+]2C)C(C)=O)C1 (racemic) [Compound 109, (±)-cis,trans-N-methyl-2-[N-acetyl-[[[(4-tetradecyltetrahydrofuran-4-yl]methoxy]carbonyl]amino]methyl]pyridinium iodide] | 240 | 0.39 | 
CCCCCCCCCCCCCCCCCCOCC1CC(COCCCCC[n+]2ccsc2)CO1 (racemic) [Compound 62, (±)-cis, trans-3-[5-[(2-octadecyloxymethyltetrahydrofuran-4-yl)methoxy]pentyl]thiazolium 4-methylbenzenesulfonate] | 2100 |  | 
CCCCCCCCCCCCCC[C@@H]1CO[C@@H](COCCCCCC[n+]2ccsc2)C1 (racemic) [Compound 84, (±)-trans-3-[6-[(4-tetradecyltetrahydrofuran-2-yl)methoxy]hexyl]thiazolium 4-methylbenzenesulfonate] |  |  | IC50 ([1]; Oryctolagus cuniculus): 2600 nM
CCCCCCCCCCCCCCC1COC(COC(=O)CCCCC[n+]2ccn(C)c2)C1 (racemic) [Compound 78, (±)-cis, trans-3-methyl-1-[6-[(4-tetradecyltetrahydrofuran-2-yl)methoxy]-6-oxohexyl]imidazolium 4-methylbenzenesulfonate] | 210000 |  | 
CCCCCCCCCCCCCCC1COC(COC(=O)CCCCC[n+]2ccccc2)C1 (racemic) [Compound 77, (±)-cis, trans-1-[6-[(4-tetradecyltetrahydrofuran-2-yl)methoxy]-6-oxohexyl]pyridinium 4-methylbenzenesulfonate] | 120000 |  | 
CCCCCCCCCCCCCCCCOCC1COC(COC(=O)N(Cc2cccc[n+]2CC)C(=O)OCC)C1 (racemic) [Compound 15, (±)-cis, trans-N-ethyl-[N-ethoxycarbonyl-[[[(4-hexadecyloxymethyltetrahydrofuran-2-yl)methoxy]carbonyl]amino]methyl]pyridinium iodide] | 48 | 0.035 | 

More lines, main results first:

IC50 [1, 3] [nM] | SMILES | ED50 [2] [mg/kg] | other results
8200 | CCCCCCCCCCCCCCC1COC(COCCCCCC[N+](C)(C)C)C1 (racemic) [Compound 71, (±)-cis, trans-6-[6-(4-tetradecyltetrahydrofuran-2-yl)methoxy]N,N,N-trimethylhexaminium 4-methylbenzenesulfonate] |  | 
51000 | CCCCCCCCCCCCCCC1COC(COCCCC[N+]2(C)CCOCC2)C1 (racemic) [Compound 81, (±)-cis, trans-4-methyl-4-[4-[(4-tetradecyltetrahydrofuran-2-yl)methoxy]butyl]morpholinium 4-methylbenzenesulfonate] |  | 
1400 | CCCCCCCCCCCCCCCCOCC1COC(COCCCCCC[n+]2ccsc2)C1 (racemic) [Compound 4, (±)-cis, trans-3-[6-[(4-hexadecyloxymethyltetrahydrofuran-2-yl)methoxy]hexyl]thiazolium 4-methylbenzenesulfonate] | 1.2 | 
180000 | CCCCCCCCCCCCCCC1COC(COC(=O)CCCCC[N+](C)(C)C)C1 (racemic) [Compound 76] |  | 
15000 | CCCCCCCCCCCCCCC1COC(COCCCCCC[n+]2ccn(C)c2)C1 (racemic) [Compound 73, (±)-cis, trans-3-methyl-1-[6-[(4-tetradecyltetrahydrofuran-2-yl)methoxy]hexyl]imidazolium 4-methylbenzenesulfonate] |  | 
1800 | CCCCCCCCCCCCCCC1COC(COCCCCCCC[n+]2ccsc2)C1 (racemic) [Compound 82, (±)-cis, trans-3-[7-[(4-tetradecyltetrahydrofuran-2-yl)methoxy]heptyl]thiazolium 4-methylbenzenesulfonate] | 1.5 | 
2500 | CCCCCCCCCCCCOCC1COC(COCCCCCCC[n+]2ccsc2)C1 (racemic) [Compound 1, (±)-cis, trans-3-[7-[(4-dodecyloxymethyltetrahydrofuran-2-yl)methoxy]heptyl]thiazolium 4-methylbenzenesulphonate] | 3.7 | 
39000 | CCCCCCCCCCCCCCC1COC(COCCCC[n+]2ccsc2)C1 (racemic) [Compound 79, (±)-cis, trans-3-[4-[(4-tetradecyltetrahydrofuran-2-yl)methoxy]butyl]thiazolium 4-methylbenzenesulfonate] |  | 
75000 | CCCCCCCCCCCCCCC1COC(COCCCC[n+]2ccccc2C)C1 (racemic) [Compound 80, (±)-cis, trans-2-methyl-1-[4-[(4-tetradecyltetrahydrofuran-2-yl)methoxy]butyl]pyridinium 4-methylbenzenesulfonate] |  | 
6300 | CCCCCCCCCCCCCCC1COC(COCCCCCC[n+]2ccccc2)C1 (racemic) [Compound 74, (±)-cis, trans-1-[6-[(4-tetradecyltetrahydrofuran-2-yl)methoxy]hexyl]pyridinium methanesulfonate] |  | 
900 | CCCCCCCCCCCCCCOCC1COC(COCCCCCCC[n+]2ccsc2)C1 (racemic) [Compound 2, (±)-cis, trans-3-[7-(4-tetradecyloxymethyltetrahydrofuran-2-yl)methoxy]heptyl]thiazolium 4-methylbenzenesulfonate] | 1.4 | 
1400 | CCCCCCCCCCCCCCCCOCC1CC(COCCCCCC[n+]2ccsc2)CO1 (mixture of isomers) [Compound 63, (35)-cis, trans-3-[6-[(2-hexadecyloxymethyltetrahydrofuran-4-yl)methoxy]hexyl]thiazolium 4-methylbenzenesulfonate] | 2.5 | 
3400 | CCCCCCCCCCCCCCC1COC(COCCCCCC[n+]2cccc3ccccc32)C1 (racemic) [Compound 72, (±)-cis, trans-1-[6-[(4-tetradecyltetrahydrofuran-2-yl)methoxy]hexyl]quinolinium 4-methylbenzenesulfonate] | 3.2 | 
50000 | CCCCCCCCCCCCCCC1COC(COC(=O)CCCCC[n+]2ccsc2)C1 (racemic) [Compound 75, (±)-cis, trans-3-[6-[(4-tetradecyltetrahydrofuran-2-yl)methoxy]-6-oxohexyl]thiazolium 4-methylbenzenesulfonate] |  | 
2600 | CCCCCCCCCCCCCC[C@@H]1CO[C@H](COCCCCCC[n+]2ccsc2)C1 (relative stereo) [Compound 83, (±)-cis-3-[6-[(4-tetradecyltetrahydrofuran-2-yl)methoxy]hexyl]thiazolium4-methylbenzenesulfonate] |  | 
